The record followed here is US7932262B2 (Novartis AG, priority 2006, dated 2011).

For this test, the system named is PC-3 cells. Put plainly: Cell Proliferation Assay (Cell Titer Glo), PC-3 cell line. It counts as cell-based. The note with it: Homo sapiens, PC-3, PC3 cells; read-out: CPEC50 PC3. As to the method: IV. Cell Proliferation Assay Protocol:
A2780, PC-3, or PC3MM cells were seeded at 1000 cells/well in 100 μL/well (10.000 cells/mL) growth media in 96-well plates. Cells were allowed to adhere to the bottom of plates for 3-5 hours in a 37° C. 5% CO2 incubator. Compounds were dissolved in DMSO and then transferred to the cell plates. The cells were incubated with the compounds for 3 days in a 37° C. 5% CO2 incubator. The growth medium containing the compounds was then removed from the cells and fresh medium was added, followed by 100 μL of Cell Titer Glo assay reagent (Promega). This mixture was shaken for 1 minute and then incubated without shaking for 10 minutes. Activity determinations for the compounds were made by detection on a Trilux Instrument.
V. Cell Proliferation Assay Protocol: PC-3 Cell Line
PC-3 cells were seeded at 1000 cells/well in 100 μL/well (10.000 cells/mL) along with growth media into black-walled, clear bottom 96-well plates. The cells were allowed to adhere to the bottom of the plate for 3-5 hours in a 37° C. 5% CO2 incubator.
Test compounds were diluted to 500× in DMSO. The DMSO solutions of six of the compounds were transferred to the cells in the 96 well round bottom plate, column 2, row B-F. A 1:3 serial dilution of each compound was carried out. The serial dilution comprised adding 20 μL of DMSO to the wells containing the compounds and doing a 1:3 dilution across the plate from columns 2-10. Column 11 contained only DMSO. The serial dilution was carried out using a BioMek 2000 protocol “CP Serial Dilution using 250 μL tips” or “Proliferation Compound” (if using 20 μL tips).
To a 96 deep well block, columns 2-11 rows B-F, was transferred 500 μL of growth medium. Using the FX protocol “HH_CellAssay—2 μL to 500 μL”, 2 μL of compound from each cell of the compound plate was transferred to the corresponding cell in the 96 deep well block containing 500 μL of growth medium. The instrument was programmed to dilute the compound in growth medium and then transfer 100 μL of that mixture to cell plates containing cells. The cell plates, to which test compounds had been added, were incubated for 3 days at 37° C. Following the incubation, the medium was removed and replaced with fresh medium. Cell Titer Glo (100 μL) was added to each well and the plate was shaken for 1 minute and then incubated without shaking for 10 minutes. The plates were then read using a Trilux instrument.
For the molecule `Nc1cc(C(F)(F)F)c(-c2ccc3cnc(Nc4ccc(S(N)(=O)=O)cc4)nc3c2OC2CCNCC2)cn1` [Compound 934, 4-(7-(6-amino-4-(trifluoromethyl)pyridin-3-yl)-8-(piperidin-4-yloxy)quinazolin-2-ylamino)benzenesulfonamide], the EC50 is less than 5 µM.
In the case of `COc1cc(Nc2ncc3ccc(OC4CCNCC4)cc3n2)cc(OC)c1` [Compound 957, N-(3,5-dimethoxyphenyl)-7-(piperidin-4-yloxy)quinazolin-2-amine], the EC50 was less than 5 µM.
As to `CCN1CCC(Oc2ccc3cnc(Nc4cc(OC)cc(OC)c4)nc3c2)CC1` [Compound 958, N-(3,5-dimethoxyphenyl)-7-(1-ethylpiperidin-4-yloxy)quinazolin-2-amine], the EC50 is less than 5 µM.
`CC(C)N1CCC(Oc2ccc3cnc(Nc4ccc(Cl)cc4)nc3c2)CC1` [Compound 959, N-(4-chlorophenyl)-7-(1-isopropylpiperidin-4-yloxy)quinazolin-2-amine]: the EC50 is less than 5 µM.
With `CC(C)NS(=O)(=O)c1ccc(Nc2ncc3ccc(OC4CCN(C(C)C)CC4)cc3n2)cc1` [Compound 961, N-isopropyl-4-(7-(1-isopropylpiperidin-4-yloxy)quinazolin-2-ylamino)benzenesulfonamide], the EC50 is less than 5 µM.
The result for `CNC(=O)Cc1ccc(Nc2ncc3cccc(OC4CCN(C(C)C)CC4)c3n2)cc1` [Compound 966, 2-(4-(8-(1-isopropylpiperidin-4-yloxy)quinazolin-2-ylamino)phenyl)-N-methylacetamide] reads less than 5 µM.
The result for `CC(C)NC(=O)Cc1ccc(Nc2ncc3cccc(OC4CCN(C(C)C)CC4)c3n2)cc1` [Compound 967, N-isopropyl-2-(4-(8-(1-isopropylpiperidin-4-yloxy)quinazolin-2-ylamino)phenyl)acetamide] reads less than 5 µM; that for `CC(C)N1CCC(Oc2cccc3cnc(Nc4ccc(N5CCOCC5)cc4)nc23)CC1` [Compound 968, 8-(1-isopropylpiperidin-4-yloxy)-N-(4-morpholinophenyl)quinazolin-2-amine], less than 5 µM.
In the case of `CC(=O)Nc1ccc(Nc2ncc3cccc(OC4CCN(C(C)C)CC4)c3n2)cc1` [Compound 969] it was less than 5 µM; in that of `CC(C)N1CCC(Oc2cccc3cnc(Nc4ccc(CC(N)=O)cc4)nc23)CC1` [Compound 970, 2-(4-(8-(1-isopropylpiperidin-4-yloxy)quinazolin-2-ylamino)phenyl)acetamide], less than 5 µM; in that of `Fc1ccc(Nc2ncc3ccc(OC4CCNCC4)cc3n2)cc1` [Compound 988, N-(4-fluorophenyl)-7-(piperidin-4-yloxy)quinazolin-2-amine], less than 5 µM.
Consider `CC(C)N1CCC(Oc2ccc3cnc(Nc4ccc(F)cc4)nc3c2)CC1` [Compound 989, N-(4-fluorophenyl)-7-(1-isopropylpiperidin-4-yloxy)quinazolin-2-amine], for which the EC50 was 5 to 10 µM.
Regarding `CNS(=O)(=O)Cc1ccc(Nc2ncc3ccc(OC4CCN(C(C)C)CC4)cc3n2)cc1` [Compound 990, 1-(4-(7-(1-isopropylpiperidin-4-yloxy)quinazolin-2-ylamino)phenyl)-N-methylmethanesulfonamide], the EC50 is less than 5 µM.
The result for `CC(C)N1CCC(Oc2cccc3cnc(Nc4ccc(NC(=O)N5CCCC5)cc4)nc23)CC1` [Compound 992, N-(4-(8-(1-isopropylpiperidin-4-yloxy)quinazolin-2-ylamino)phenyl)pyrrolidine-1-carboxamide] reads less than 5 µM; that for `CC(C)N1CCC(Oc2cccc3cnc(Nc4cccc(CC(N)=O)c4)nc23)CC1` [Compound 1002, 2-(3-(8-(1-isopropylpiperidin-4-yloxy)quinazolin-2-ylamino)phenyl)acetamide], 5 to 10 µM.
Take `CNC(=O)Cc1cccc(Nc2ncc3cccc(OC4CCN(C(C)C)CC4)c3n2)c1` [Compound 1003, 2-(3-(8-(1-isopropylpiperidin-4-yloxy)quinazolin-2-ylamino)phenyl)-N-methylacetamide]: the EC50 is less than 5 µM.
